Results: patent US20260097047A1, “Small molecule inhibitors of the ribosome biogenesis factor NVL2” (Board of Regents, The University of Texas System, priority 2023, published 2026)

System: HCT116 cells
Assay: Cell viability assay (CellTiter-Glo, 72 hours) in HCT116 human colorectal cancer cells
Type: cell-based
Conditions: Homo sapiens, HCT-116; Table 4; HCT116, 72 hours; read-out: Activity
Procedure, shortened: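 2,000 cells/well adhered overnight, then compound added by digital dispenser with DMSO normalized to 0.5%. Viability read after 72 h at 37 °C by ATP-based CellTiter-Glo luminescence. IC50 from ten-point curves baseline-corrected to vehicle, five-parameter asymmetric least-squares fit.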

Row | IC50 | Compound
1 | < 500 nM | CC#CCN1C(=O)c2ccccc2Sc2cc(NC(=S)Nc3ccc(OC(F)F)cc3)ccc21 [Table 4: —CH2CCMe; 4-F2HCOPh; CH, 1-(10-(But-2-yn-1-yl)-11-oxo-10,11-dihydrodibenzo[b,f][1,4]thiazepin-7-yl)-3-(4-(difluoromethoxy)phenyl)thiourea]
2 | < 500 nM | CC#CCN1C(=O)c2ccccc2Sc2cc(NC(=S)Nc3ccc(OC)nc3)ccc21 [1-(10-(But-2-yn-1-yl)-11-oxo-10,11-dihydrodibenzo[b,f][1,4]thiazepin-7-yl)-3-(6-methoxypyridin-3-yl)thiourea]

Same assay, conditions: Homo sapiens, HCT-116; Table 5; HCT116, 72 hours; read-out: Activity

Row | IC50 | Compound
3 | 500 to 1000 nM | CCC/C=C/CN1C(=O)c2ccccc2Sc2cc(Nc3ncccc3C(F)(F)F)ccc21 [(E)-10-(Hex-2-en-1-yl)-7-((3-(trifluoromethyl)pyridin-2-yl)amino)dibenzo[b,f][1,4]thiazepin-11 (10H)-one]
4 | < 500 nM | CC#CCN1C(=O)c2ccccc2Sc2cc(Nc3nc(C)cnc3C)ccc21 [10-(But-2-yn-1-yl)-7-((3,6-dimethylpyrazin-2-yl)amino)dibenzo[b,f][1,4]thiazepin-11 (10H)-one]
5 | < 500 nM | CCC/C=C/CN1C(=O)c2ccccc2Sc2cc(Nc3ncc(C)cc3C)ccc21 [(E)-7-((3,5-Dimethylpyridin-2-yl)amino)-10-(hex-2-en-1-yl)dibenzo[b,f][1,4]thiazepin-11 (10H)-one]
6 | < 500 nM | CC#CCN1C(=O)c2ccccc2Cc2cc(Nc3ncccc3C)ccc21 [5-(But-2-yn-1-yl)-2-((3-methylpyridin-2-yl)amino)-5H-dibenzo[b,e]azepin-6 (11H)-one]
7 | < 500 nM | C#Cc1cccnc1Nc1ccc2c(c1)Sc1ccccc1C(=O)N2CC#CC [10-(But-2-yn-1-yl)-7-((3-ethynylpyridin-2-yl)amino)dibenzo[b,f][1,4]thiazepin-11 (10H)-one]
8 | < 500 nM | CCC/C=C/CN1C(=O)c2ccccc2Sc2cc(Nc3cc(F)ccn3)ccc21 [(E)-7-((4-Fluoropyridin-2-yl)amino)-10-(hex-2-en-1-yl)dibenzo[b,f][1,4]thiazepin-11(10H)-one]

Same assay, conditions: Homo sapiens, HCT-116; Table 6; HCT116, 72 hours; read-out: Activity

Row | IC50 | Compound
9 | < 500 nM | CC#CCN1C(=O)c2ccccc2Sc2cc(NC3CCCOC3)ccc21 (centres unmarked) [10-(But-2-yn-1-yl)-7-((tetrahydro-2H-pyran-3-yl)amino)dibenzo[b,f][1,4]thiazepin-11 (10H)-one]

Same assay, conditions: Homo sapiens, HCT-116; Table 9; HCT116, 72 hours; read-out: Activity

Row | IC50 | Compound
10 | < 500 nM | CC#CCN1C(=O)c2ccccc2C(C)c2cc(NC(=O)c3ccc(OC)cc3)ccc21 (centres unmarked) [Table 9: —CH2CCMe; 4-MeOPh; CHMe, N-(5-(But-2-yn-1-yl)-11-methyl-6-oxo-6,11-dihydro-5H-dibenzo[b,e]azepin-2-yl)-4-methoxybenzamide]

Same assay, conditions: Table 1; HCT116, 72 hours; read-out: Activity

Row | IC50 | Compound
11 | < 500 nM | CC#CCN1C(=O)c2ccccc2Sc2cc(NC(=O)N3CCC3)cnc21 [Table 1: —CH2CCMe; azetidin-1-yl; CH; N]

Same assay, conditions: Table 2; HCT116, 72 hours; read-out: Activity

Row | IC50 | Compound
12 | < 500 nM | CC#CCN1C(=O)c2ccccc2Sc2cc(NC(=S)N3CCC3)cnc21 [Table 2: —CH2CCMe; azetidin-1-yl; CH; N]

Same assay, conditions: Table 4; HCT116, 72 hours; read-out: Activity

Row | IC50 | Compound
13 | < 500 nM | CC#CCN1C(=O)c2ccccc2Sc2cc(NC(=S)Nc3ccc4oc(=O)n(C)c4c3)ccc21
14 | < 500 nM | CC#CCN1C(=O)c2ccccc2Sc2cc(NC(=S)Nc3cccc(OCF)c3)ccc21 [Table 4: —CH2CCMe; 3-FH2COPh; CH]
15 | < 500 nM | CC#CCN1C(=O)c2ccccc2Sc2cc(NC(=S)Nc3ccc4scnc4c3)cnc21

Same assay, conditions: Table 5; HCT116, 72 hours; read-out: Activity

Row | IC50 | Compound
16 | < 500 nM | Cc1ccnnc1Nc1ccc2c(c1)Sc1ccccc1C(=O)N2CC#CCl
17 | < 500 nM | Cc1ccc(F)c(Nc2ccc3c(c2)Sc2ccccc2C(=O)N3CC#CCl)n1
18 | < 500 nM | CC#CCN1C(=O)c2ccccc2Sc2cc(Nc3ncc(C)cc3C)cnc21
19 | < 500 nM | C#CCN1C(=O)c2ccccc2Sc2cc(Nc3nc(C)cnc3C)cnc21

Row | Compound | IC50
20 | CC=CCN1C(=O)c2ccccc2Sc2cc(Nc3ncccc3C#N)cnc21 | < 500 nM

Same assay, conditions: Table 6; HCT116, 72 hours; read-out: Activity

Row | IC50 | Compound
21 | < 500 nM | CC#CCN1C(=O)c2ccccc2Sc2cc(NC3CC4(CC(=O)C4)C3)ccc21
22 | < 500 nM | C#CCN1C(=O)c2ccccc2Sc2cc(NC3CC4(COC4)C3)cnc21

Same assay, conditions: Table 7; cell viability assay, CellTiter-Glo, 72 hours; scaffold drawing 42 with R^2, R^3, X/Y, Z; read-out: Activity

Row | IC50 | Compound
23 | 500 to 1000 nM | C#Cc1ccc(C(=O)Nc2ccc3c(c2)Sc2ccccc2C(=O)N3CCOC)cc1 [—(CH2)2OMe; 4-HCCPh; CH/CH; S]
24 | 500 to 1000 nM | COCCN1C(=O)c2ccccc2Sc2cc(NC(=O)c3cc(F)c(OC)c(F)c3)ccc21 [—(CH2)2OMe; 3,5-F2,4-MeOPh; CH/CH; S]
25 | 1000 to 5000 nM | COCCN1C(=O)c2ccccc2Cc2cc(NC(=O)c3ccoc3)ccc21 [—(CH2)2OMe; furan-3-yl; CH/CH; CH2]
26 | < 500 nM | C#CCOCCN1C(=O)c2ccccc2Sc2cc(NC(=O)c3ccc(N=[N+]=[N-])cc3)ccc21 [—(CH2)2OCH2CCH; 4-N3Ph; CH/CH; S]
27 | 1000 to 5000 nM | COCCN1C(=O)c2ccccc2Sc2cc(NC(=O)C3CCCCCC3)ccc21 [—(CH2)2OMe; cHeptyl; CH/CH; S]
28 | 1000 to 5000 nM | COCCN1C(=O)c2ccccc2Sc2cc(NC(C)=O)ccc21 [—(CH2)2OMe; Me; CH/CH; S]

Same assay, conditions: Table 8; analogs of scaffold drawing 43 defined by R^2, R^3, X/Y, W; read-out: Activity (IC50 class, cell viability assay)

Row | IC50 | Compound
29 | < 500 nM | CC#CCN1C(=O)c2cc(F)ccc2Sc2cc(NC(=O)C3CC4(COC4)C3)ccc21
30 | < 500 nM | CC#CCN1C(=O)c2ccc(Cl)cc2Sc2cc(NC(=O)C34CC(O)(C3)C4)ccc21
31 | < 500 nM | O=C1c2ccccc2Sc2cc(NC(=O)C34CC(C3)C4)cnc2N1CC#CC1CC1
32 | 500 to 1000 nM | CC#CCN1C(=O)c2ccccc2Sc2cc(NC(=O)C34CC(C(F)(F)F)(C3)C4)ccc21
33 | < 500 nM | CC#CCN1C(=O)c2cc(F)ccc2Sc2cc(NC(=O)C=CCO)ccc21 [—CH2CCMe; CH═CHCH2OH; CH/CF; CH]
34 | < 500 nM | CO[C@H]1C[C@@H](C(=O)Nc2cnc3c(c2)Sc2ccccc2C(=O)N3CC#CC(F)(F)F)C1 [—CH2CCCF3; cis-3-MeOcBu; CH/CH; N]
35 | < 500 nM | CC#CCN1C(=O)c2ccccc2Sc2cc(NC(=O)C3CNC(=O)C3)ccc21 (centres unmarked) [—CH2CCMe; 5-oxopyrrolidin-3-yl; CH/CH; CH]
36 | < 500 nM | CC#CCN1C(=O)c2ccccc2Sc2cc(NC(=O)c3ccoc3)ccc21 [—CH2CCMe; furan-3-yl; CH/CH; CH]
37 | < 500 nM | CC#CCN1C(=O)c2ccccc2Sc2cc(NC(=O)C34CC(C)(C3)C4)cnc21
38 | < 500 nM | C#CCN1C(=O)c2ccccc2Sc2cc(NC(=O)[C@H]3C[C@H](OC)C3)ccc21 [—CH2CCH; trans-3-MeOcBu; CH/CH; CH]
39 | 1000 to 5000 nM | CC#CCN1C(=O)c2ccccc2Sc2cc(NC(=O)C3CCNC3)ccc21 (centres unmarked) [—CH2CCMe; pyrrolidin-3-yl; CH/CH; CH]
40 | < 500 nM | O=C(CC1COC1)Nc1ccc2c(c1)Sc1ccccc1C(=O)N2CC#CC1CC1 [—CH2CC^cPr; (oxetan-3-yl)CH2; CH/CH; CH]
41 | 1000 to 5000 nM | CC#CCN1C(=O)c2ccccc2Sc2cc(NC(=O)C3CCN(C)C3)ccc21 (centres unmarked)
42 | < 500 nM | CC#CCN1C(=O)c2ccc(Cl)cc2Sc2cc(NC(=O)CCCO)ccc21 [—CH2CCMe; (CH2)3OH; CCl/CH; CH]
43 | < 500 nM | CC#CCN1C(=O)c2cc(F)ccc2Sc2cc(NC(=O)C3CC4(CC(=NO)C4)C3)cnc21 (centres unmarked)
44 | < 500 nM | O=C(Nc1ccc2c(c1)Sc1ccc(F)cc1C(=O)N2CC#CC1CC1)C1CC2(CC(O)C2)C1 (centres unmarked)

Row | Compound | IC50
45 | CC#CCN1C(=O)c2ccccc2Sc2cc(NC(=O)C3CCCO3)ccc21 (centres unmarked) | < 500 nM

Same assay, conditions: Table 9; HCT116, 72 hours; read-out: Activity

Row | IC50 | Compound
46 | < 500 nM | CO[C@H]1C[C@@H](C(=O)Nc2ccc3c(c2)C(C)(O)c2ccccc2C(=O)N3CC#CC2CC2)C1 (stereo partly drawn) [Table 9: —CH2CCcPr; cis-3-MeOcBu; CMeOH]
47 | < 500 nM | CC#CCN1C(=O)c2ccccc2C(C)c2cc(NC(=O)CCCO)ccc21 (centres unmarked) [Table 9: —CH2CCMe; (CH2)3OH; CHMe]
48 | < 500 nM | CC#CCN1C(=O)c2ccccc2C(C)(O)c2cc(NC(=O)C3CC(COC)C3)ccc21 (centres unmarked) [Table 9: —CH2CCMe; 3-MeOCH2-cBu; CMeOH]
49 | < 500 nM | CC1c2ccccc2C(=O)N(CC#CC2CC2)c2ccc(NC(=O)C3CC4(CC(=O)C4)C3)cc21 (centres unmarked)
50 | < 500 nM | CC#CCN1C(=O)c2ccccc2Cc2cc(NC(=O)CC3COC3)ccc21 [Table 9: —CH2CCMe; (oxetan-3-yl)CH2; CH2]
51 | < 500 nM | CC#CCN1C(=O)c2ccccc2C(C)c2cc(NC(=O)[C@@H]3C[C@H]3C(=O)OC)ccc21 (relative stereo)
52 | < 500 nM | COC12CC(C(=O)Nc3ccc4c(c3)C(C)c3ccccc3C(=O)N4CC#CC3CC3)(C1)C2 (centres unmarked)
53 | < 500 nM | COCC1CC(C(=O)Nc2ccc3c(c2)Cc2ccccc2C(=O)N3CC#CC2CC2)C1 (centres unmarked) [Table 9: —CH2CCCPr; 3-MeOCH2-cBu; CH2]
54 | < 500 nM | CC#CCN1C(=O)c2ccccc2C(C)c2cc(NC(=O)C3CC3CO)ccc21 (centres unmarked)
55 | < 500 nM | CO[C@H]1C[C@H](C(=O)Nc2ccc3c(c2)C(C)(O)c2ccccc2C(=O)N3CC#CC2CC2)C1 (some centres unmarked)
56 | < 500 nM | COCC1CC(C(=O)Nc2ccc3c(c2)C(C#N)c2ccccc2C(=O)N3CC#CC2CC2)C1 (centres unmarked) [Table 9: —CH2CCcPr; 3-MeOCH2-cBu; CHCN]
57 | < 500 nM | CC#CCN1C(=O)c2ccccc2C(C)(O)c2cc(NC(=O)[C@H]3C[C@@H](OC)C3)ccc21 (stereo partly drawn) [Table 9: —CH2CCMe; cis-3-MeOcBu; CMeOH]
58 | < 500 nM | C#CCN1C(=O)c2ccccc2C(C#N)c2cc(NC(=O)[C@H]3C[C@@H](OC)C3)ccc21 (stereo partly drawn) [Table 9: —CH2CCH; cis-3-MeOcBu; CHCN]
59 | < 500 nM | CC#CCN1C(=O)c2ccccc2C(C)c2cc(NC(=O)C3COC3)ccc21 (centres unmarked) [Table 9: —CH2CCMe; oxetan-3-yl; CHMe]

Row | Compound | IC50
60 | CC1c2ccccc2C(=O)N(CC#CC2CC2)c2ccc(NC(=O)C3CCOC3)cc21 (centres unmarked) | < 500 nM
61 | CC1c2ccccc2C(=O)N(CC#CC2CC2)c2ccc(NC(=O)C3CCCO3)cc21 (centres unmarked) | < 500 nM

Same assay, conditions: cell viability assay; Table 10 analogs of scaffold drawing 45 defined by R2, R3, X/Y, W; read-out: Activity

Row | IC50 | Compound
62 | < 500 nM | C#CCN1C(=O)c2ccccc2Sc2cc(NC(=O)[C@H]3C[C@H](OC)C3)ccc21 [—CH2CCH; trans-3-MeOcBu; CH/CH; CH]
